Laboratory results published in patent US12252459B2, “Hydrazone amide derivatives and use thereof in preparation of anti-osteoporosis drugs” (SHENZHEN CELL INSPIRE PHARMACEUTICAL DEVELOPMENT CO., LTD., priority 2019, dated 2025).

Experiments:
[1] = system: RANKL-induced osteoclast differentiation of RAW264.7 cells; assay: Osteoclast differentiation inhibition experiment (RANKL-induced, TRAP staining); assay type: cell-based; details: for IC50: RAW264.7 cells, 100 ng/ml RANKL, 5 days, TRAP staining, osteoclasts with 3 or more nuclei counted; for Therapeutic index SI (CC50/IC50): selective inhibition constant = CC50 (RAW264.7 cytotoxicity) / IC50 (osteoclast differentiation)
Method: Example 33: Osteoclast Differentiation Inhibition Experiment
(§1) RAW264.7 cells were cultured in vitro using DMEM high glucose medium containing 10% fetal bovine serum at 37° C. under 5% CO2 for routine maintenance culture and passage.
(§2) S2. Compound Intervention
The logarithmic growth phase cells were collected and formulated into a cell suspension at a concentration of 2×10^4 cells/mL, and the cell suspension were added to a 96-well cell culture plate. After culturing in a carbon dioxide incubator for 24 hours, the culture medium was replaced with a medium containing 100 ng/ml RANKL and the compound at different concentrations to continue culturing for 5 days, while changing the medium containing the same RANKL concentration and compound concentration every 2 days. The osteoclasts were stained with the TRAP staining method and measured on day 5. Three wells were set for each concentration, and a control group without the compound treatment was set for comparison.
The differentiated osteoclasts were stained with TRAP kit, and the number of osteoclasts fused by 3 or more nuclei was counted.
(§3) S4. Processing of Results
The inhibition rate of each compound on RANKL-induced osteoclast differentiation was calculated according to the following equation: […]
An osteoclast differentiation inhibition curve of each compound was plotted with the osteoclast differentiation inhibition rate as the ordinate and the logarithm of the compound concentration as the abscissa. According to the osteoclast differentiation inhibition rate by each compound, the half maximal inhibitory concentration IC50 was calculated, i.e., the concentration of the compound that is required for 50% osteoclast differentiation inhibition.
(§4) In addition, a selective inhibition constant of each compound was calculated according to the equation: selective inhibition constant (SI)=CC50/IC50, in order to evaluate the administration safety of each compound.
Based on the value of the selective index SI=CC50/IC50, the anti-osteoporotic differentiation effect of the compound was evaluated according to the following criteria.

[2] = Cytotoxicity assay (MTT) on RAW264.7 cells; assay type: cell-based; details: mouse, RAW264.7 cell growth inhibition, MTT method
Method: Example 32: Cytotoxicity Assay of Compounds
as §1, §2
The logarithmic growth phase cells were collected and formulated into a cell suspension at a concentration of 1×10^5 cells/mL, and the cell suspension was added to a 96-well cell culture plate. After culturing in a carbon dioxide incubator for 24 hours, the culture medium was replaced with a medium containing the compound at different concentrations to continue culturing for 2 days, and the cytotoxicity was detected on day 3. The compound to be tested was prepared into solutions of different concentrations using DMSO. Three wells were set for each concentration, and a control group without the compound treatment was set for comparison. […]
as §3
The RAW264.7 cell growth inhibition rate by each compound was calculated according to the following equation: […]
A cell growth inhibition curve of each compound was plotted with the RAW264.7 cell growth inhibition rate as the ordinate and the logarithm of the compound concentration as the abscissa. According to the inhibition rate of each compound on the cells, the 50% cytotoxic concentration CC50 was calculated, i.e., the concentration of the compound that is required for 50% inhibition of cell growth.
as §4

Compound | IC50 ([1]; Mus musculus, RAW264.7, 120 h) | Therapeutic index SI (CC50/IC50) [1] | CC50 at 2 days [2] | IC50 [1]
CC(=O)/C(=N\Nc1ccccc1C(=O)O)C(=O)Nc1nccs1 [Compound 22] | 3.66 µM | 41 | 149 µM | –
CC(=O)/C(=N\Nc1ccccc1C(=O)O)C(=O)Nc1cccc(O)n1 [Compound 30] | 15.4 µM | 13 | 198 µM | –
CCOC(=O)c1sc(NC(=O)/C(=N/Nc2ccc(F)cc2C(=O)O)C(C)=O)nc1C [Compound 10] | 0.4 µM | 308 | 123 µM | –
CC(=O)/C(=N\Nc1ccccc1C(=O)O)C(=O)Nc1nc2ccccc2s1 [Compound 23] | 0.78 µM | 53 | 41.1 µM | –
CC(=O)/C(=N\Nc1ccccc1C(=O)O)C(=O)Nc1ccc(C#N)cn1 [Compound 29] | 3.21 µM | 37 | 119 µM | –
CC(=O)/C(=N\Nc1ccccc1C(=O)O)C(=O)Nc1nc(C)cs1 [Compound 21] | 2.58 µM | 85 | 220 µM | –
CCOC(=O)c1sc(NC(=O)/C(=N/Nc2cc(F)ccc2C(=O)O)C(C)=O)nc1C [Compound 11] | 1.02 µM | 56 | 57.2 µM | –
CCOC(=O)c1sc(NC(=O)/C(=N/Nc2ccc(Cl)cc2C(=O)O)C(C)=O)nc1C [Compound 15] | 1.56 µM | 22 | 33.9 µM | –
CC(=O)/C(=N\Nc1ccccc1C(=O)O)C(=O)Nc1ccccc1 [Compound 24] | 11.1 µM | 7 | 75.2 µM | –
CCOC(=O)c1sc(NC(=O)/C(=N/Nc2cccc(C(=O)O)c2)C(C)=O)nc1C [Compound 3] | – | 1625 | 81.2 µM | 0.05 µM
CCOC(=O)c1sc(NC(=O)/C(=N/Nc2ccccc2O)C(C)=O)nc1C [Compound 5] | 2.45 µM | 21 | 52.6 µM | –
CC(=O)/C(=N\Nc1ccccc1C(=O)O)C(=O)N1CCc2ccccc2C1 [Compound 27] | 9.03 µM | 15 | 135 µM | –
CCOC(=O)c1sc(NC(=O)/C(=N/Nc2cc(C(=O)O)ccc2C(=O)O)C(C)=O)nc1C [Compound 19] | 10.2 µM | 20 | 202 µM | –
CCOC(=O)c1sc(NC(=O)/C(=N/Nc2c(C#N)cccc2C(=O)O)C(C)=O)nc1C [Compound 12] | – | 1701 | 391 µM | 0.23 µM
CCOC(=O)c1sc(NC(=O)/C(=N/Nc2ccccc2CO)C(C)=O)nc1C [Compound 6] | 12.1 µM | 6 | 77.9 µM | –
CCOC(=O)c1sc(NC(=O)/C(=N/Nc2ccncc2C(=O)O)C(C)=O)nc1C [Compound 16] | 22.3 µM | 20 | 451 µM | –
CCOC(=O)c1sc(NC(=O)/C(=N/Nc2ccccc2C(=O)OC)C(C)=O)nc1C [Compound 4] | 1.26 µM | 65 | 82.1 µM | –
CCOC(=O)c1sc(NC(=O)/C(=N/Nc2ccc(N)cc2C(=O)O)C(C)=O)nc1C [Compound 20] | 1.23 µM | 40 | 49.1 µM | –
CCOC(=O)c1sc(NC(=O)/C(=N/Nc2cc(C#N)ccc2C(=O)O)C(C)=O)nc1C [Compound 13] | 0.88 µM | 71 | 62.3 µM | –
CCOC(=O)c1sc(NC(=O)/C(=N/Nc2ccc([N+](=O)[O-])cc2C(=O)O)C(C)=O)nc1C [Compound 14] | 0.89 µM | 47 | 41.9 µM | –
CC(=O)/C(=N\Nc1ccccc1C(=O)O)C(=O)NC1CCNCC1 [Compound 26] | 8.85 µM | 7 | 65.8 µM | –
CCOC(=O)c1sc(NC(=O)/C(=N/Nc2c(C)cccc2C(=O)O)C(C)=O)nc1C [Compound 7] | 0.99 µM | 63 | 62.8 µM | –
CC(=O)/C(=N\Nc1ccccc1C(=O)O)C(=O)Nc1ccccn1 [Compound 25] | 0.36 µM | 301 | 81.2 µM | 0.27 µM
CCOC(=O)c1sc(NC(=O)/C(=N/Nc2cc(C)ccc2C(=O)O)C(C)=O)nc1C [Compound 8] | 3.85 µM | 15 | 57.2 µM | –
CCOC(=O)c1sc(NC(=O)/C(=N/Nc2ccccc2C(=O)O)C(C)=O)nc1C [Compound 1] | 1.24 µM | 50 | 62.5 µM | –
CCOC(=O)c1sc(NC(=O)/C(=N/Nc2c(C(=O)O)cccc2C(=O)O)C(C)=O)nc1C [Compound 18] | 0.46 µM | 271 | 125 µM | –
CCOC(=O)c1sc(NC(=O)/C(=N/Nc2ccc(C)cc2C(=O)O)C(C)=O)nc1C [Compound 9] | 4.63 µM | 19 | 89 µM | –
CC(=O)/C(=N\Nc1ccccc1C(=O)O)C(=O)N1CCOCC1 [Compound 28] | 0.99 µM | 77 | 76.2 µM | –
CCOC(=O)c1sc(NC(=O)/C(=N/Nc2ccc(C(=O)O)cc2)C(C)=O)nc1C [Compound 2] | 0.73 µM | 95 | 69.2 µM | –
